{
  "source": "paper PMC3032545",
  "about": "“A c-di-GMP Effector System Controls Cell Adhesion by Inside-Out Signaling and Surface Protein Cleavage” (PLoS Biology, 2011)",
  "biological_target": "T1, LapD (c-di-GMP receptor) with LapG (periplasmic protease, read-out) (Pseudomonas fluorescens, UniProt Q3KK31)",
  "T1 construct": "full-length native LapD and LapG in clarified Pf0-1 cell extracts; LapD mutants from plasmid pMQ72 in the lapD deletion strain; with Periplasmic cysteine protease LapG (transglutaminase-like cysteine peptidase, DUF920)",
  "T1 sequence (Q3KK31 1-648)": "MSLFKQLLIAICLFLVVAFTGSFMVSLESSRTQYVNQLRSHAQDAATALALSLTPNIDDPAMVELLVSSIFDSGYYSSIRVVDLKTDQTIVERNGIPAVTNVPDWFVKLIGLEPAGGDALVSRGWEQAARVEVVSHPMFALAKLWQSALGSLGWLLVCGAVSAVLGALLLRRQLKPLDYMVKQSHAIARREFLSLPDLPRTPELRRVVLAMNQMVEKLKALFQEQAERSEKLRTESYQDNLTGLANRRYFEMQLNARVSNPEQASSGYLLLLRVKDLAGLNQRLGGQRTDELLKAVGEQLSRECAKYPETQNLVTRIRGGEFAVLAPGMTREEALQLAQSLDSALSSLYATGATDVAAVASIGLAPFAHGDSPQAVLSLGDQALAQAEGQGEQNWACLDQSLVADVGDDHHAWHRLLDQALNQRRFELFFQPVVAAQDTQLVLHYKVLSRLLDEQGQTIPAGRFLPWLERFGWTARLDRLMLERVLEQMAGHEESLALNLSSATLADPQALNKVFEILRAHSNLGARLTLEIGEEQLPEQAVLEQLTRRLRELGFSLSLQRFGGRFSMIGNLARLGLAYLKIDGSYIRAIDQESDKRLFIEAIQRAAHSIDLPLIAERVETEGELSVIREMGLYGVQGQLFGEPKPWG",
  "T1 sequence (Q3KK32 50-251 partner)": "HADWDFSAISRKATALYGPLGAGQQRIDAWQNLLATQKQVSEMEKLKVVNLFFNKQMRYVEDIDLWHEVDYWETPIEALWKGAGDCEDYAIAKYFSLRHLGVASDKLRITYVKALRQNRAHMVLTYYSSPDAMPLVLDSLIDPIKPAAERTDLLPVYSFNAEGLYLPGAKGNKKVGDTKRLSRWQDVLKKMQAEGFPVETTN",
  "test": "inhibition of LapG cleavage of N-Term-LapA in cell extract, anti-His Western blot densitometry",
  "assay_type": "biochemical",
  "settings": "LapD-dependent: c-di-GMP binds LapD EAL domain, not LapG; wild-type Pf0-1 extract; 30 pmol N-Term-LapA, 100 min, room temperature",
  "data": [
    {"smiles": "Nc1nc2c(ncn2[C@@H]2O[C@@H]3CO[P@](=O)(O)O[C@H]4[C@@H](O)[C@H](n5cnc6c(=O)[nH]c(N)nc65)O[C@@H]4CO[P@](=O)(O)O[C@H]3[C@H]2O)c(=O)[nH]1", "note": "[c-di-GMP]", "values": [
      {"measurement": "IC50", "result": "2300 ± 1100", "unit": "nM"}
    ]}
  ]
}
